Biological target: Induced myeloid leukemia cell differentiation protein Mcl-1 (Homo sapiens, UniProt Q07820)
Assay: Inhibition of FITC-labeled Bak-BH3 peptide binding to MCL1 (172 to 371 residues) (unknown origin) by fluorescence polarization competition assay

Induced myeloid leukemia cell differentiation protein Mcl-1, sequence (Q07820 whole entry, the tested form may be a part): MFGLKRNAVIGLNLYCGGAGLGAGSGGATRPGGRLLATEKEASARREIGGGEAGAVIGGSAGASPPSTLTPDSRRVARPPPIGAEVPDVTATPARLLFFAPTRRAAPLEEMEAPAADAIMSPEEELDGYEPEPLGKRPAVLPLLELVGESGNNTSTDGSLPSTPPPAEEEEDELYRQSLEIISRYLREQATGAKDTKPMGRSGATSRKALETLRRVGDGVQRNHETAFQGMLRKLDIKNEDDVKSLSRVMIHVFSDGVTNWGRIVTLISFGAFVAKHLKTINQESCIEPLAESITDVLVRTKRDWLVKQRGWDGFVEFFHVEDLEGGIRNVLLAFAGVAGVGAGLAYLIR

Structure (SMILES) | Ki [µM]
COC(=O)[C@H](CC(C)C)N1C(=O)S/C(=C\c2ccc(Oc3cc(C)c(Cl)c(C)c3)cc2)C1=O | > 100
Cc1cc(Oc2ccc(CC3SC(=O)N(CC(=O)O)C3=O)cc2)cc(C)c1Cl (configuration not stated) | 10.2
Cc1cc(Oc2ccc(/C=C3\SC(=O)NC3=O)cc2)cc(C)c1Cl | > 100
Cc1cc(Oc2ccc(/C=C3\SC(=O)N([C@@H](CC(C)C)C(N)=O)C3=O)cc2)cc(C)c1Cl | > 100
CC(C)C[C@@H](C(=O)O)N1C(=O)S/C(=C\c2ccc(O)cc2)C1=O | > 100
Cc1cc(Oc2ccc(/C=C3\SC(=O)N(CC(=O)O)C3=O)cc2)cc(C)c1Cl | 2.34
CC(C)C[C@@H](C(=O)O)N1C(=O)S/C(=C\c2ccccc2)C1=O | > 100
CC(C)C[C@@H](C(=O)O)N1C(=O)S/C(=C\c2ccc(Br)cc2)C1=O | 8.78
CC(C)C[C@@H](C(=O)O)N1C(=O)S/C(=C\c2ccc(Oc3ccccc3)cc2)C1=O | 12.7
Cc1cc(Oc2ccc(/C=C3\SC(=O)N([C@H](C)C(=O)O)C3=O)cc2)cc(C)c1Cl | 2.78

These reach a lower Ki. Values come first.

Ki [µM] | Structure (SMILES)
2.13 | CC(C)C[C@@H](C(=O)O)N1C(=O)S/C(=C\c2cccc(Br)c2)C1=O
1.94 | Cc1cc(Oc2ccc(/C=C3\SC(=O)N([C@@H](C)C(=O)O)C3=O)cc2)cc(C)c1Cl
0.419 | Cc1cc(Oc2ccc(/C=C3\SC(=O)N([C@@H](CC(C)C)C(=O)O)C3=O)cc2)cc(C)c1Cl
0.29 | O=C(O)[C@H](Cc1ccccc1)N1C(=O)S/C(=C\c2cccc(Br)c2)C1=O
0.155 | Cc1cc(Oc2ccc(/C=C3\SC(=O)N([C@@H](Cc4ccccc4)C(=O)O)C3=O)cc2)cc(C)c1Cl
0.878 | Cc1cc(Oc2ccc(/C=C3\SC(=O)N([C@H](Cc4ccccc4)C(=O)O)C3=O)cc2)cc(C)c1Cl
2.22 | CC(C)C[C@@H](C(=O)O)N1C(=O)S/C(=C\c2ccc(C(C)(C)C)cc2)C1=O
0.791 | Cc1cc(Oc2ccc(/C=C3\SC(=O)N([C@@H](CC(C)C)C(=O)O)C3=O)cc2Br)cc(C)c1Cl
1 | Cc1cc(Oc2ccc(/C=C3\SC(=O)N([C@H](CC(C)C)C(=O)O)C3=O)cc2)cc(C)c1Cl
1.19 | Cc1cc(Oc2ccc(/C=C3\SC(=O)N([C@H](C(=O)O)C(C)C)C3=O)cc2)cc(C)c1Cl
0.845 | CC(C)(C)c1ccc(/C=C2\SC(=O)N([C@@H](Cc3ccccc3)C(=O)O)C2=O)cc1

Biological target: Bcl-2-like protein 1 (Homo sapiens, UniProt Q07817)
Assay: Inhibition of FITC-labeled Bak-BH3 peptide binding to Bcl-XL (2 to 212 residues) (unknown origin) by fluorescence polarization assay

Bcl-2-like protein 1, sequence (Q07817 whole entry, the tested form may be a part): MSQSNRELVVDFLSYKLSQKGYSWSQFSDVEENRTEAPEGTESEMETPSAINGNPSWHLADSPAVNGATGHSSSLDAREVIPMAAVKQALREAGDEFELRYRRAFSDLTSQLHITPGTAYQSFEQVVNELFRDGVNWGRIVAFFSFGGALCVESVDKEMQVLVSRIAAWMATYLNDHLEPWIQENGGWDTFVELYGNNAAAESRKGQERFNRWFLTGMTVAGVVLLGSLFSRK

Ki [µM] | Structure (SMILES)
0.09 | Cc1cc(Oc2ccc(/C=C3\SC(=O)N([C@@H](Cc4ccccc4)C(=O)O)C3=O)cc2)cc(C)c1Cl

Source: ChEMBL document CHEMBL4184084, “Discovery of Mcl-1 inhibitors based on a thiazolidine-2,4-dione scaffold” (Bioorg Med Chem Lett, 2018)
